Data as given in US12138312B2, “Cell-penetrating peptides for antisense delivery” (Sarepta Therapeutics, Inc., priority 2017, dated 2024).
Like-named read-outs stand apart in the source and are kept apart here. No end group written: not given here.

System: HeLa 654 cells
Experiment: eGFP exon-skipping reporter assay, flow cytometry analysis of GFP fluorescence
Type: cell-based
[1] = eGFP fluorescence of CPP-PMO IVS2-654 conjugate compared to unconjugated PMO, 5 μM, 22 hours, MEM with 10% FBS
[2] = […], 5 μM, 22 hours, MEM with 10% FBS

Substance	Activity Relative to PMO [1]	Activity Relative to PMO [2]	further results
Buforin 2	1.9	–	–
Melittin	–	4.5	–
Penetratin	4.2	–	–
Pyrrhocoricin (VDKGSYLPRPTPPRPIYNRN; ends and bridges not checked; also: conjugated to PMO cargo; UniProt P37362 1-20, looked up)	–	–	Activity Relative to PMO: 1.4
SAP(E)	0.8	–	–
Transportan 10	–	0.8	–
λN(1-22): PMO IVS2-654 conjugated to CPP MDAQTRRRERRAEKQAQWKAAN (also: conjugated to PMO IVS2-654 cargo; UniProt P03045 1-22, looked up, fragment)	–	1.4	–
